Experiment [1] has as its system HIV-1IIIB. As to the kind of experiment: inhibition of HIV-1IIIB replication (p24 production) in MT-2 cells. Type of experiment: cell-based. The conditions noted are these: concentration up to 80 μg/ml. The text has this: (§1) Assessment of anti-HIV-1 infectivity. […] Reactions were terminated by addition of 1N H2SO4.
Experiment [2] concerns MT-2 & H9/HIV-1IIIB (clade B, X4). As to the kind of experiment: cell-cell fusion, dye transfer assay. The format is cell-based. The conditions noted are these: H9/HIV-1IIIB with MT-2 cells. Here is the method: Inhibition of cell-cell fusion. A dye transfer assay was used for detection of HIV-1 mediated cell fusion as previously described (21, 24, 34). H9/HIV-1IIIB cells were labeled with a fluorescent reagent, Calcein-AM (Molecular Probes, Inc., Eugene, Oreg.) and then incubated with MT-2 cells (ratio=1:5) in 96-well plates at 37° C. for 2 hrs in the presence or absence of compounds tested. The fused and unfused Cacein-labeled HIV-1-infected cells were counted under an inverted fluorescence microscope (Zeiss, Germany) with an eyepiece micrometer disc. The percentage of inhibition of cell fusion and the IC50 values were calculated as previously described (21).

The subject of experiment [3] is HIV-1NL4-3 pseudotyped viruses expressing HIV-1SF162 (R5) Env with U87-T4-CCR5 cells. The experiment can be described thus: virus-cell fusion, luciferase assay. The format is cell-based. The conditions noted are these: HIV-1SF162 (R5) Env pseudotyped virus. The method, then:
Inhibition of virus-cell fusion. Inhibition of fusion of HIV-1NL4-3 pseudotyped viruses expressing envelope glycoprotein of the HIV-1HXB2 (X4) and HIV-1SF162 (R5) strains with U87-T4-CXCR4 and U87-T4-CCR5 cells, respectively, was measured as previously described (15). Briefly, 100 μl of U87-T4-CXCR4 and U87-T4-CCR5 cells, respectively, at 1×10^5 cells/ml were added to the wells of a 96-well tissue culture plate and cultured at 37° C. overnight. Fifty μl of a test compound at graded concentrations was mixed with 50 μl of the HIV-1NL4-3-luc viruses pseudotyped with the HIV-1HXB2 and HIV-1SF162 Env, prepared as described previously (15), at a final p24 concentration of 0.5 ng/ml in the presence of Polybrene (10 μg/ml). After incubation at 37° C. for 30 min, the mixtures were added to the cells and incubated at 37° C. overnight. The supernatants were removed and fresh culture medium was added. After incubation at 37° C. for 3 days, the cells were washed twice with PBS and lysed with the lysing reagent included in a luciferase assay kit (Promega, Corp., Madison, Wis.). The cell lysates were transferred to a 96-well flat-bottom luminometer plate (Costar, Corning Inc., Corning, N.Y.) and luciferase substrate (Promega) was added. The luciferase activity was measured immediately on a luminometer (Ultra 384, Tecan). The % inhibition and IC50 values were calculated as described above.

Experiment [4] deals with H9/HIV-1IIIB cells cocultured with MT-2 cells. The experiment can be described thus: syncytium-formation assay for screening HIV-1 fusion inhibitors. The format is cell-based. The conditions noted are these: single dose 25 μg/ml. The text has this: Syncytium-formation assay for screening HIV-1 fusion inhibitors. […] HIV-1 induced syncytium formation was observed under an inverted microscope and scored as “−” (no syncytium was observed), “±” (about 50% syncytia were inhibited), and “+” (no syncytium formation was inhibited). The compounds scored with “−” and “±” were selected for further screening by ELISA for inhibitors against the gp41 six-helix bundle formation.

Experiment [5] deals with gp41 six-helix bundle formed by N36 and C34 (Human immunodeficiency virus type 1 group M subtype B, UniProt P04578). Conditions: for inhibitory activity on gp41 six-helix bundle formation (sandwich ELISA): graded concentrations, up to 80 μg/ml, compound preincubated with N36; for inhibition of six-helix bundle formation between N36 and C34 (screening ELISA): single dose 25 μg/ml. Here is the method:
ELISA for screening for compounds that inhibit the gp41 six-helix bundle formation. A sandwich ELISA as previously described (23) was used to screen for compounds that inhibit the gp41 six-helix bundle formation. Briefly, peptide N36 (2 μM) was pre-incubated with a test compound at the indicated concentrations at 37° C. for 30 min, followed by addition of C34 (2 μM). In the control experiments, N36 was pre-incubated with C34 at 37° C. for 30 min, followed by addition of the test compound. After incubation at 37° C. for 30 min, the mixture was added to wells of a 96-well polystyrene plate (Costar, Corning Inc., Corning, N.Y.) which were precoated with IgG (2 μg/ml) purified from rabbit antisera directed against the N36/C34 mixture. […] Absorbance at 450 nm was measured using an ELISA reader (Ultra 384, Tecan, Research Triangle Park, N.C.). The percent inhibition by the compounds was calculated as previously described (18) and the concentration for 50% inhibition (IC50) was calculated using the software designated Calcusyn (7), kindly provided by Dr. T. C. Chou (Sloan-Kettering Cancer Center, New York, N.Y.).

For a further experiment, the target named is T1, gp120-CD4 binding (Human immunodeficiency virus type 1 group M subtype B, UniProt P03375).
T1 construct: purchased Immunodiagnostics, Woburn, Mass; (gp120); Genentech Inc., South San Francisco, Calif; (sCD4)
Also on record: species or system HIV-1. The conditions noted are these: 10 μg/ml. Here is the method: Inhibition of gp120 binding to CD4. Wells of polystyrene plates was coated with 100 μl of sheep anti-gp120 antibody D7324 (Cliniqa, Fallbrook, Calif.) at 2 μg/ml in carbonate buffer (pH 9.6) at 4° C. overnight and blocked with 1% dry fat-free milk in PBS at 37° C. for 1 h. One hundred microliters of recombinant gp120 molecule (Immunodiagnostics, Woburn, Mass.) at 0.5 μg/ml in PBS was added and incubated at 37° C. for 1 h, followed by three washes with PBS-T. Soluble CD4 (sCD4) at 0.25 μg/ml was added in the presence of a compound (25 μM) and incubated at 37° C. for 1 h. After three washes, rabbit anti-sCD4 IgG (0.25 μg/ml in PBS, 100 μl/well) was added and incubated at 37° C. for 1 h. Binding of rabbit anti-sCD4 IgG was determined by sequential addition of biotinylated goat-anti-rabbit IgG, SA-HRP, and TMB. After the reactions were terminated, absorbance at 450 nm was recorded in an ELISA reader (Tecan).
HIV-1 envelope glycoprotein gp120 was captured by the anti-gp120 antibody coated onto wells of polystyrene plates. […] After extensive washes, CD4 molecule bound to gp120 was quantitated by ELISA using anti-CD4 antibody.

The next experiment has as its target T2, CXCR4 (Homo sapiens, UniProt P61073).
T2 construct: expressed in transfected cells; host or cells: U373-MAGI-CXCR4CEM cells
As to the kind of experiment: inhibition of anti-CXCR4 antibody 12G5 binding to CXCR4-expressing cells, cell-based ELISA. Conditions: 25 μM. Here is the method:
Inhibition of anti-CXCR4 antibody binding to CXCR4-expressing cells. The inhibition of the binding of anti-CXCR4 antibody to CXCR4-expressing cells was determined using a cell-based ELISA as described previously (52). Briefly, U373-MAGI-CXCR4CEM cells (1×10^5/well) which express CXCR4 molecules were cultured in a 96-well plate at 37° C. overnight. The cells were fixed with 5% formaldehyde at room temperature for 15 min and washed with PBS-T. The cells were incubated with anti-CXCR4 mAb 12G5 at 37° C. for 1 h in the presence or absence of compounds tested. Isotype IgG2a was used as a control.

Experiment [6] has as its system HIV-1IIIB. The experiment can be described thus: time-of-addition assay. The format is cell-based. Conditions: 2.5 μM added 8 hrs post-infection. Here is the method: as §1
MT-2 cells were incubated with HIV-1IIIB at 37° C. for 0, 1, 2, 3, 4, 6, and 8 hrs, respectively, before addition of the test compounds at 10 μg/ml. AZT (2.5 μM) was used as a control. After culture for another 2 hrs, the cells were washed to remove the free virus and compounds. The supernatants were collected on day 4 post-infection for measurement of p24 production.

Sequence of gp41 six-helix bundle formed by N36 and C34 (P04578 546-581): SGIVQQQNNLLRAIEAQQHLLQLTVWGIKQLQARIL
T2 sequence (P61073 whole entry): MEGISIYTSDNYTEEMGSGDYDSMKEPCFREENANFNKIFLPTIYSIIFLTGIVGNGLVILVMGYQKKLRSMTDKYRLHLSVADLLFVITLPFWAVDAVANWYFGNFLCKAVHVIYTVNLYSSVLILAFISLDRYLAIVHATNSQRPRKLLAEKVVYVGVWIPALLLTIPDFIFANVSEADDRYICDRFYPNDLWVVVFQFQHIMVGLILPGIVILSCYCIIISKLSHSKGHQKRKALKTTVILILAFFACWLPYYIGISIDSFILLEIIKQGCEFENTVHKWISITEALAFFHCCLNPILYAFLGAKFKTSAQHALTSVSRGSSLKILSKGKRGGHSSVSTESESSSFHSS

As to `Cc1ccc(C)n1-c1cccc(O)c1` [NB-177, reference compound], the “inhibitory activity on HIV-1IIIB replication” value in the experiment on HIV-1IIIB [1] is “no inhibitory activity”. Besides, in experiment [2], the “inhibitory activity on cell-cell fusion” value was “no inhibitory activity”. The “inhibitory activity on virus-cell fusion” value in experiment [3] was “no inhibitory activity”. Further, in experiment [4], the “inhibition of HIV-1 mediated syncytium formation” value is given as “no inhibitory activity”. In experiment [5], the “inhibitory activity on gp41 six-helix bundle formation (sandwich ELISA)” value is listed as “no inhibitory activity”; the “inhibition of six-helix bundle formation between N36 and C34 (screening ELISA)” value is listed as “no inhibitory activity”.
Regarding `Clc1ccc(-n2cccc2)cc1` [NB-178, reference compound], in the experiment with HIV-1IIIB [1], the “inhibitory activity on HIV-1IIIB replication” value is recorded as “no inhibitory activity”. Further, the “inhibitory activity on cell-cell fusion” value in experiment [2] is recorded as “no inhibitory activity”. Also, in experiment [3], the “inhibitory activity on virus-cell fusion” value is recorded as “no inhibitory activity”. The “inhibition of HIV-1 mediated syncytium formation” value in experiment [4] was “no inhibitory activity”. Moreover, in experiment [5], the “inhibitory activity on gp41 six-helix bundle formation (sandwich ELISA)” value is listed as “no inhibitory activity”; the “inhibition of six-helix bundle formation between N36 and C34 (screening ELISA)” value is on record as “no inhibitory activity”.
Turning to `CN1C(=O)[C@@H](c2cc(Cl)c(O)c(Cl)c2)NC(=O)[C@@H]2NC(=O)[C@@H](c3cc(Cl)c(O)c(Cl)c3)NC(=O)[C@H](NC(=O)C(=O)c3cc(Cl)c(O)c(Cl)c3)Cc3c[nH]c4c(cccc34)-c3cc2cc(c3O)Oc2ccc(cc2)C[C@H]1C(=O)N[C@@H](C(=O)O)c1ccc(O)cc1` [chloropeptin, reference compound], the “inhibition of gp120-CD4 binding” value on gp120-CD4 binding is given as “markedly inhibited”.
Turning to “[Tyr-5,12, Lys-7]polyphemusin II [Example T22, reference compound]”, the “inhibition of 12G5 binding to U373-MAGI-CXCR4CEM cells” value on CXCR4 was “significantly inhibited”.
In the case of `Cc1cn([C@H]2C[C@H](N=[N+]=[N-])[C@@H](CO)O2)c(=O)[nH]c1=O` [AZT, reference compound], in the experiment on HIV-1IIIB [6], the “inhibition of HIV-1 replication, time of addition” value is reported as “still effective”.

Source of the values: patent US7241803B2, “Compounds for inhibition of HIV infection by blocking HIV entry” (New York Blood Center, priority 2002, dated 2007).
